Patent US5698515A, “Insulin-containing polymer composition for oral administration” (Institut Neftekhimicheskogo Sinteza Imeni A.V.Topchieva …, priority 1994, dated 1997)

Columns and labels:
[1] = tested on: white rats with experimental diabetes (streptozotocin); experiment: Blood glucose in rats with streptozotocin-induced experimental diabetes; type: in vivo; conditions: diabetic rat, p.e. (subcutaneously), ± 8%
Protocol: Experimental diabetes is obtained (induced) in white rats of […], weighing 180 g., by way of intraperitoneally administered streptozotocin in the amount of 70 mg. for 1 kg. of weight. Synthesized polymers began to be introduced after the glucose level has exceeded 400 mg. %.
The procedure is conducted according to Example 12 with an equal amount of insulin administered subcutaneously in the form of solution.

rabbits [2] = experiment: Glucose concentration in blood of rabbits after oral administration of insulin hydrogels; type: in vivo; conditions: rabbit, orally, ± 8%
Protocol: 0.1 g. of a pre-dried crosslinked polyacrylamide, modified with ovomucoid, is placed in 1 ml. of an aqueous solution of insulin (insulin activity is 25 U/mg.) with a concentration of 1.0 mg./ml. per hour at room temperature. During this time limit the polymer swells completely and is ready to use. The synthesized hydrogel in an amount corresponding to 5 units of insulin per kg. of animal weight is administered to rabbits orally, using a catheter. Blood samples are collected after 30, 60, 90 and 120 minutes.
The procedure is conducted according to Example 1 using various crosslinked modified polymers, various concentrations of the insulin solution, various quantities of the cross-linked modified polymers and various amounts of ovomucoid.
The procedure is conducted according to Example 1 but using a nonmodified polyacrylamide hydrogel.
Rabbits are treated orally with an insulin solution in an amount of 7 U/kg. of animal weight, a mixture of ovomucoid (2.5 mg./kg. weight) and insulin (8 U/kg) or a modified hydrogel (200 mg./kg. weight).

rabbits [3] = conditions: subcutaneous injection, 0.23 units of insulin, cited from earlier work

## 14k: Control: porcine insulin solution administered subcutaneously to rats [Example 14k]
[1]; 0 min
  Glucose Conc. in Blood: 400 Mg./100 ml.
[1]; 30 min after administration
  Glucose Conc. in Blood: 160 Mg./100 ml.
[1]; 60 min after administration
  Glucose Conc. in Blood: 145 Mg./100 ml.
[1]; 90 min after administration
  Glucose Conc. in Blood: 150 Mg./100 ml.

## 15k: Control: porcine insulin solution given orally to rabbits, 7 U/kg [Example 15k]
Rabbits [2]; 0 min (start), 5 U insulin/kg in Ex. 1 (Ex. 15: 7 U/kg; Ex. 16: 8 U/kg + ovomucoid 2.5 mg/kg; Ex. 17: 200 mg/kg hydrogel)
  Glucose Conc. in Blood: 152 Mg./100 ml.
Rabbits [2]; 30 min after administration
  Glucose Conc. in Blood: 151 Mg./100 ml.
Rabbits [2]; 60 min after administration
  Glucose Conc. in Blood: 150 Mg./100 ml.
Rabbits [2]; 90 min after administration
  Glucose Conc. in Blood: 160 Mg./100 ml.

## insulin
Rabbits [3]; 150 min. after the injection
  glucose concentration in blood: 120 mg./100 ml.
  reduction of glucose concentration in blood: 74%
Rabbits [3]; before
  glucose concentration in blood, initial: 330 mg./100 ml.
